# Measurements reported in PMC11420944, “Targeted Degradation of Protein Kinase A via a Stapled Peptide PROTAC” (ACS Chemical Biology, 2024).
# Assays:
# phospho VASP = assay: VASP phosphorylation in forskolin-stimulated cells, Western blot; type: cell-based; settings: MDA-MB-231 cells, 10 µM, 5 h, 50 µM forskolin 30 min, n = 3
# Procedure: (§1) Next, we sought to assess whether StIP-TAC could also downregulate PKAc signaling in cells. For this experiment, cells were treated with forskolin to stimulate PKAc activity. Cells were either treated with DMSO, the small molecule PKAc inhibitor H89, StIP-TAC alone, or StIP-TAC with SAINT protein (Figure 4; Figure S7). […] (Figure 4C,D). A known PKA substrate, vasodilator-stimulated phosphoprotein (VASP),[42] was also probed for PKA-mediated phosphorylation (Figure S8).
# Cell-based PROTAC activity assays. MDA-MB-231 cells were grown on 6-well tissue culture plates (BD Biosciences). Cells were serum-starved for 24 hours in serum-free RPMI with penicillin/streptomycin, glucose, and L-glutamine. StIP-TAC treatment was prepared with SAINT-Protein reagent according to manufacturer protocol (Synvolux) and added to cells at a final concentration of 10 µM for 5 hours. For phosphorylation studies, cells were additionally stimulated with 50 µM forskolin for 30 minutes before harvesting. For H89-treated cells, 50 μM H89 was added 30 minutes before stimulation with forskolin. For degradation studies, cells were co-treated with 10 μM MG-132 (Selleck Chemicals) alongside StIP-TAC and DMSO treatments for the duration of the 5-hour experiment. […] Cells were harvested in Laemmli sample buffer, boiled for 10 minutes and protein levels were analyzed via western blotting. […]
# Biosciences). Western blot fluorescence detection was performed using a LI-COR Odyssey Fc imaging system. […]
# Table S1. Peptide and PROTAC sequences, expected and observed masses determined via HPLC-MS. […]
# Figure S8: StIP-TAC inhibits phosphorylation of the PKA substrate VASP. […] (B) Densitometric quantification of Western blots […]
# reduction in phosphorylated VASP in cells treated with H89 and StIP-TAC with SAINT Protein reagent. Quantification was performed via Li-COR Image Studio. **p=0.010; ***p<0.001; ns, not significant as assessed by one-way ANOVA and Bonferroni’s multiple comparisons test. […]
# PKAc = molecular target: T1, PKAc (Homo sapiens, UniProt P17612); assay: PKAc degradation in cells, Western blot densitometry; type: cell-based; settings: MDA-MB-231 cells, n = 3
# T1 construct: degrade native PKAc in cells, MDA-MB-231 cells were used; endogenous in cells; host or cells: MDA-MB-231 (ATCC HTB-26)
# From the text: To determine whether StIP-TAC could successfully degrade native PKAc in cells, MDA-MB-231 cells were used. […] We hypothesized this lack of a statistically significant effect may be a result of the compound’s relatively large molecular weight (∼3 kDa) and potentially limited cellular permeability, a common limitation of PROTAC molecules.[37]−[40] […] Based on this study, we aimed to improve delivery of our compound using SAINT Protein. […] To confirm that StIP-TAC-mediated degradation of PKAc resulted from recruitment of the proteasome, we incubated cells with 10 μM StIP-TAC alongside 10 μM proteasomal inhibitor MG-132 and subsequently screened for PKAc protein levels.
# Cell-based PROTAC activity assays. MDA-MB-231 cells were grown on 6-well tissue culture plates (BD Biosciences). Cells were serum-starved for 24 hours in serum-free RPMI with penicillin/streptomycin, glucose, and L-glutamine. StIP-TAC treatment was prepared with SAINT-Protein reagent according to manufacturer protocol (Synvolux) and added to cells at a final concentration of 10 µM for 5 hours. For phosphorylation studies, cells were additionally stimulated with 50 µM forskolin for 30 minutes before harvesting. For H89-treated cells, 50 μM H89 was added 30 minutes before stimulation with forskolin. For degradation studies, cells were co-treated with 10 μM MG-132 (Selleck Chemicals) alongside StIP-TAC and DMSO treatments for the duration of the 5-hour experiment. For studies examining the NAE-mediated activation of CRL, cells were co-treated with 6 μM MLN4924 (Cayman Chemical) alongside StIP-TAC for the duration of the 5-hour experiment. For studies examining potential effects of StIP-3 on PKAc protein levels, cells were treated with 10 μM StIP-3 with or without SAINT-Protein reagent for 5 hours. Cells were harvested in Laemmli sample buffer, boiled for 10 minutes and protein levels were analyzed via western blotting. For control experiments, cells were incubated for 5 hours with an equivalent volume of DMSO or SAINT-Protein to the above studies, with or without forskolin stimulation.
# To assess PKA degradation, anti-PKAc (1:1000, BD Biosciences) and anti-GAPDH (1:1000, Proteintech) primary antibodies were used. To assess PKA substrate phosphorylation, anti-phospho serine/threonine PKA substrate (1:1000, Cell Signaling Technology) and anti-tubulin (1:1000, Cell Signaling Technology) primary antibodies were used. To assess phosphorylation of VASP, anti-phospho VASP (1:1000, Cell […]
# Signaling Technology) and anti-GAPDH (0.5 μg/mL, DSHB) primary antibodies were used. Incubation with primary antibodies was followed by incubation with anti-mouse […]
# (§2) Biosciences). Western blot fluorescence detection was performed using a LI-COR Odyssey Fc imaging system. Data analysis was performed using GraphPad Prism […]
# Table S1. Peptide and PROTAC sequences, expected and observed masses determined via HPLC-MS. Asterisks (*) represent residues of (S)-2-(4-pentenyl)- […]
# (1 picture or pasted object on this page, not shown here)
# (§3) Figure S3: Western blots for PKA degradation. Experiments were performed in triplicate (n=3) in low passage number MDA-MB-231 cells (ATCC HTB-26). Following t = 24 hour starvation in serum-free RPMI media, cells were treated for t = 5 hours with DMSO, SAINT-Protein Lipid reagent alone, 10 µM StIP-TAC, or 10 µM StIP-TAC incubated with SAINT-Protein Lipid reagent per manufacturer instructions. […]
# [1] = tested on: phospho serine/threonine PKA substrate; assay: PKA substrate phosphorylation in forskolin-stimulated cells, Western blot; type: cell-based; settings: MDA-MB-231 cells, 10 µM, 5 h, 50 µM forskolin 30 min, n = 3
# Procedure: as §1
# Cell-based PROTAC activity assays. MDA-MB-231 cells were grown on 6-well tissue culture plates (BD Biosciences). Cells were serum-starved for 24 hours in serum-free RPMI with penicillin/streptomycin, glucose, and L-glutamine. StIP-TAC treatment was prepared with SAINT-Protein reagent according to manufacturer protocol (Synvolux) and added to cells at a final concentration of 10 µM for 5 hours. For phosphorylation studies, cells were additionally stimulated with 50 µM forskolin for 30 minutes before harvesting. For H89-treated cells, 50 μM H89 was added 30 minutes before stimulation […]
# with forskolin. […]
# Cells were harvested in Laemmli sample buffer, boiled for 10 minutes and protein levels were analyzed via western blotting. For control experiments, cells were incubated for 5 hours with an equivalent volume of DMSO or SAINT-Protein to the above studies, with or without forskolin stimulation.
# To assess PKA degradation, anti-PKAc (1:1000, BD Biosciences) and anti-GAPDH (1:1000, Proteintech) primary antibodies were used. To assess PKA substrate phosphorylation, anti-phospho serine/threonine PKA substrate (1:1000, Cell Signaling […]
# Incubation with primary antibodies was followed by incubation with anti-mouse […]
# as §2
# as §3, with “S7:” for “S3:”, “substrate phosphorylation.” for “degradation.”, “instructions. For forskolin-stimulated treatments, cells were incubated for 30 minutes with 50 µM forskolin” for “instructions.”
# prior to harvesting in Laemmli sample buffer. For H89-inhibited treatments, cells were incubated for 30 minutes prior to forskolin stimulation with 50 µM H89. Lysates were run via SDS-PAGE and Western blotting performed anti-phospho serine/threonine PKA substrate (1:1000, Cell Signaling Technology) and anti-tubulin (1:1000, Cell Signaling Technology) primary antibodies.
substance,measurement,setting,value
"Cereblon Ligand 1-PEG8-*TTY*DFIASGRTGRRNAI (sidechain bridge or staple) [StIP-TAC, StIP-3-derived stapled peptide conjugated to thalidomide-derived Cereblon Ligand 1 via a PEG-8 linker]",cell permeability,cells,no longer permeable
same,VASP phosphorylation,phospho VASP; with SAINT-Protein,significant inhibition
same,VASP phosphorylation,phospho VASP; without SAINT Protein,did not result in a significant reduction
same,PKAc protein levels on co-treatment with NAE inhibitor MLN4924,"PKAc; 10 µM with SAINT Protein, plus 6 µM MLN4924, 5 h",rescued PKAc protein to baseline levels
same,PKAc protein levels on co-treatment with proteasomal inhibitor MG-132,"PKAc; 10 µM with SAINT Protein, plus 10 µM MG-132, 5 h",rescued PKAc protein to baseline levels
same,reduction of PKAc protein levels vs vehicle control,"PKAc; 10 µM, 5 h, with SAINT Protein lipid reagent, normalized to GAPDH",approximately 50%
same,"PKAc degradation, forskolin stimulated vs unstimulated","PKAc; 10 µM, 5 h, with or without 30 min 50 µM forskolin",no significant difference
same,PKAc protein levels vs vehicle control,"PKAc; 10 µM, 5 h, without SAINT Protein lipid reagent, normalized to GAPDH",no significant reduction
same,PKAc substrate phosphorylation,[1]; with SAINT Protein,significant reduction in substrate phosphorylation to near basal levels
same,"phosphorylation of the approximately 55, 60, 80, and 100 kDa substrate bands",[1]; with SAINT Protein,statistically significant reduction
same,PKAc substrate phosphorylation,[1]; without SAINT Protein,did not yield a significant reduction
